From the NIST ThermoML archive (doi:10.1016/j.tca.2011.06.003)

Test: xn = mol fraction of the nth substance listed
Conditions: 101 kPa, Liquid; for speed of sound: Sing-around technique in a fixed-path interferometer; for mass density: Vibrating tube method

NCCNCCN [di(2-aminoethyl)amine] + CC(C)CO
Conditions	mass density [kg/m3]	speed of sound [m/s]	viscosity [mPa·s]
293.15 K, x1 = 0.054	815.237	1243	–
293.15 K, x1 = 0.1043	826.644	1275.2	–
293.15 K, x1 = 0.1529	836.817	1305.2	–
293.15 K, x1 = 0.2068	847.162	1337.4	–
293.15 K, x1 = 0.2535	855.512	1364.9	–
293.15 K, x1 = 0.305	863.833	1390.5	–
293.15 K, x1 = 0.4057	878.879	1439.4	–
293.15 K, x1 = 0.5036	892.182	1484.7	–
293.15 K, x1 = 0.6053	905.319	1531.6	–
293.15 K, x1 = 0.7048	919.507	1570.3	–
293.15 K, x1 = 0.8098	929.46	1613.2	–
293.15 K, x1 = 0.8522	933.916	1630.9	–
293.15 K, x1 = 0.9074	939.952	1653.2	–
293.15 K, x1 = 0.9537	944.995	1671.9	–
298.15 K, x1 = 0.054	811.313	1226.2	4.027
298.15 K, x1 = 0.1043	822.66	1258	4.548
298.15 K, x1 = 0.1529	832.792	1287.9	5.094
298.15 K, x1 = 0.2068	843.096	1319.8	5.514
298.15 K, x1 = 0.2535	851.38	1345.4	5.73
298.15 K, x1 = 0.305	859.744	1372.5	5.908
298.15 K, x1 = 0.4057	874.785	1421.6	6.024
298.15 K, x1 = 0.5036	888.088	1466.7	5.962
298.15 K, x1 = 0.6053	901.203	1511.4	5.795
298.15 K, x1 = 0.7048	915.398	1551.7	5.661
298.15 K, x1 = 0.8098	925.283	1594.3	5.603
298.15 K, x1 = 0.8522	929.73	1611.7	5.574
298.15 K, x1 = 0.9074	935.74	1633.9	5.541
298.15 K, x1 = 0.9537	940.776	1651.9	5.539
303.15 K, x1 = 0.054	807.355	1209.3	3.292
303.15 K, x1 = 0.1043	818.653	1241.1	3.707
303.15 K, x1 = 0.1529	828.735	1270.7	4.092
303.15 K, x1 = 0.2068	839.013	1302.4	4.365
303.15 K, x1 = 0.2535	847.289	1328.1	4.521
303.15 K, x1 = 0.305	855.641	1355.1	4.656
303.15 K, x1 = 0.4057	870.683	1404.1	4.762
303.15 K, x1 = 0.5036	883.968	1449.2	4.732
303.15 K, x1 = 0.6053	897.071	1493.2	4.695
303.15 K, x1 = 0.7048	911.268	1533.6	4.652
303.15 K, x1 = 0.8098	921.103	1575.5	4.575
303.15 K, x1 = 0.8522	925.54	1592.9	4.525
303.15 K, x1 = 0.9074	931.531	1614.5	4.508
303.15 K, x1 = 0.9537	936.554	1632.6	4.49
308.15 K, x1 = 0.054	803.363	1192.6	2.815
308.15 K, x1 = 0.1043	814.618	1224.2	3.146
308.15 K, x1 = 0.1529	824.666	1254	3.463
308.15 K, x1 = 0.2068	834.918	1285.4	3.654
308.15 K, x1 = 0.2535	843.178	1310.6	3.768
308.15 K, x1 = 0.305	851.532	1337.4	3.855
308.15 K, x1 = 0.4057	866.568	1386.9	3.927
308.15 K, x1 = 0.5036	879.851	1431.7	3.966
308.15 K, x1 = 0.6053	892.938	1475.8	3.919
308.15 K, x1 = 0.7048	907.117	1515.9	3.899
308.15 K, x1 = 0.8098	916.922	1556.7	3.817
308.15 K, x1 = 0.8522	921.354	1574.1	3.807
308.15 K, x1 = 0.9074	927.328	1595.3	3.789
308.15 K, x1 = 0.9537	932.338	1613.3	3.78
313.15 K, x1 = 0.054	799.326	1175.8	–
313.15 K, x1 = 0.1043	810.545	1208	–
313.15 K, x1 = 0.1529	820.566	1237.8	–
313.15 K, x1 = 0.2068	830.795	1269.1	–
313.15 K, x1 = 0.2535	839.045	1294.6	–
313.15 K, x1 = 0.305	847.399	1321.3	–
313.15 K, x1 = 0.4057	862.439	1371	–
313.15 K, x1 = 0.5036	875.718	1414.9	–
313.15 K, x1 = 0.6053	888.795	1459.1	–
313.15 K, x1 = 0.7048	902.896	1499.5	–
313.15 K, x1 = 0.8098	912.74	1538.9	–
313.15 K, x1 = 0.8522	917.161	1555.8	–
313.15 K, x1 = 0.9074	923.121	1576.3	–
313.15 K, x1 = 0.9537	928.116	1593.7	–
